Where two headings read alike, the source gives them in different places.
Tests used:
[1] = test system: unilateral broncho-occlusion in anesthetized minipigs; assay: Unilateral broncho-occlusion minipig model: arterial oxygenation as proxy of VQ-mismatch, intrapulmonary selectivity (C-2.3); assay type: in vivo; settings: for % decrease delta PAP (maximal hypoxic PAP) / % increase AUCSaO2 (unwanted desaturation effect): mean, n = 4
Procedure: These effects were more pronounced 90 min after inhalation of comparative example 11 (second intervention cycles (inhal)). […] Thus, the mean % changes in maximal hypoxic PAP and associated % changes in area under the oxygen saturation curve [AUCSaO2] were compared (see FIG. 65) within the respective group. As reference cycles in each group, we used cycle 3 for the inhaled applications as well as cycle 4 for the i.v. applications.

[2] = test system: allergen-induced late airway hyperresponsiveness and inflammation in sensitized mice; assay: Chronic asthma model: ovalbumin sensitized BALB/c mice, airway hyperresponsiveness and BAL (C-3.3); assay type: in vivo, mouse; settings: for inhibition at 0.1 mg/kg: Mus musculus, dexamethasone 18 h and 1 h before each Ova challenge, comparative example 11 high dose of 100 μg/kg 2 h before
Procedure: The study was conducted to investigate whether inhalative treatment with comparative example 11 has a protective effect on the experimentally allergen-induced late airway hyperresponsiveness and inflammation in sensitized mice. Female BALB/c mice were sensitized and boosted with Ovalbumin (Ova) and aluminium hydroxide adjuvant (day 0. 14 and 21) with the exception of the negative control group receiving NaCl. On day 28 and 29. the animals were challenged with Ova aerosol. On day 30, a hyperresponsiveness test followed by bronchoalveolar lavage (BAL) was performed in all animals of all groups. The treatment groups D (10 μg) and E (100 μg) were treated with comparative example 11 inhalationally 2 h before each Ova challenge. Group A and B, the positive and negative control groups, were treated correspondingly with the vehicle. The Ova-sensitized positive control group A should show the full allergic reaction and, in contrast, the sham-sensitized negative control group B should show no allergic response. As a reference group, the animals of group C were treated inhalative with the corticosteroid dexamethasone but—due to its different mechanism of action—18 h and 1 h before each Ova challenge (on day 27, 28 and 29). On day 30, 24 h after Ova challenge in the late allergic phase, lung function—especially RL—was measured in the orotracheally intubated mice and a test on airway hyperresponsiveness was performed (inhalational methacholine provocation in doubling dose steps). […] These inhibitory effects show the successful therapeutic intervention.

[3] = test system: Caco-2 cells; assay: Caco-2 permeability test (C-5.1); assay type: in vitro ADME, human; settings: 2 μM
Procedure: The in vitro permeation of a test compound across a Caco-2 cell monolayer is a well-established assay system to predict the permeability from the gastro-intestinal tract (1). The permeability of the compounds of the present invention in such Caco-2 cells was determined as described below:
Human caco-2 cells were seeded on 24-well insert plates and were allowed to grow for 14-16 days. For permeability studies, the test compounds were dissolved in DMSO and diluted to the final test concentration of 2 μM with transport buffer [Hanks' Buffered Salt Solution, Gibco/Invitrogen, further supplemented with glucose and HEPES]. For determination of the apical to basolateral permeability (PappA-B), the test compound solution was added to the apical side of the cell monolayer and transport buffer to the basolateral side of the monolayer; for determination of the basolateral to apical permeability (PappB-A), the test compound solution was added to the basolateral side of the cell monolayer and transport buffer to the apical side of the monolayer. Samples were taken from the donor compartment at the beginning of the experiment to confirm mass balance. After an incubation of 2 h at 37° C., samples were taken from both compartments. Samples were analyzed by LC-MS/MS, and the apparent permeability coefficients were calculated. Lucifer Yellow permeability was assayed for each cell monolayer to ensure cell monolayer integrity, and the permeability of Atenolol (low permeability marker) and Sulfasalazine (marker for active excretion) was determined for each batch as quality control.

[4] = test system: total specific airway resistance (sRaw); assay: Phase I, healthy male subjects, 7 days inhalation: total specific airway resistance sRaw by bodyplethysmography (C-4.1); assay type: in vivo, human
Procedure: Healthy White male subjects, aged 18 to 45 years and with a body mass index (BMI) above/equal 18.5 and below/equal 29.9 kg/m2 were treated in a clinical pharmacological phase I study on seven days with inhaled once daily doses of 480 μg or 1000 μg or 2000 μg (2 capsules of 1000 μg) (nominal dose) of dry powder formulations of example 2 or Placebo. The subjects inhaled the drug powder from capsules (see under D-1, e.g. tables 22 and 23) inserted into a handheld inhalation device by one deep inhalative breath. The dry powder formulation of the drug is dispersed into the airstream and fine particles are transported into the deep parts of the lung where it is intended to cause a vasodilation of the blood vessels in PH patients for a substantial reduction of increased blood pressure in the central pulmonary blood vessels in PAH patients or other subtypes of PH. This effect cannot be shown in subjects with healthy lungs. In addition inhaled drug causes a dilation of the bronchial airways and thus also improves disease states of lung diseases in PH patients with pathological bronchoconstriction. This effect was measured via bodyplethysmography as reduction of Specific Airway Resistance in healthy subjects. After the deep inhalative breath the subjects hold breath for 2 seconds, so that the dry powder drug condenses from the airstream onto the surface of the deeper lung areas where it is deposited close to its site of intended pharmacological action. The drug dissolutes over the day and equilibrates the lung via lining fluid.

O=C(O)c1ccc(CCN(CCc2ccccc2OCc2ccc(-c3ccc(C(F)(F)F)cc3)cc2Cl)[C@H]2CCCc3nc(C(=O)O)ccc32)cc1 [comparative example 11, (5S)-5-{[2-(4-carboxyphenyl)ethyl][2-(2-{[3-chloro-4′-(trifluoromethyl)[biphenyl]-4-yl]methoxy}phenyl)ethyl]amino}-5,6,7,8-tetrahydroquinoline-2-carboxylic acid]
time of maximal effects after inhalation ([1]; 100 μg/kg nominal dose inhaled): 90 min | % decrease delta PAP (maximal hypoxic PAP) ([1]; Inhalation I, Cycle 5): 1.8% | % increase AUCSaO2 (unwanted desaturation effect) ([1]; Inhalation I, Cycle 5): −18.6% | % decrease delta PAP (maximal hypoxic PAP) ([1]; Inhalation II, Cycle 6): −19.6% | % increase AUCSaO2 (unwanted desaturation effect) ([1]; Inhalation II, Cycle 6): −39.4% | hypoxia-induced increases in mean pulmonary artery pressure (mPAP) ([1]; after inhaled (cycle 6) as well as i.v. application (cycles 7 and 8)): effectively reduced | BP ([1]; i.v. application, 30 μg/kg and 100 μg/kg): expected drop in BP | desaturation area (AUCSaO2) ([1]; inhaled application, 100 μg/kg nominal dose): did not increase desaturation area | % decrease delta PAP (maximal hypoxic PAP) ([1]; iv Bolus 30 μg): −23.8% | % increase AUCSaO2 (unwanted desaturation effect) ([1]; iv Bolus 30 μg): 48.1% | % decrease delta PAP (maximal hypoxic PAP) ([1]; iv Bolus 100 μg): −14.3% | % increase AUCSaO2 (unwanted desaturation effect) ([1]; iv Bolus 100 μg): 282.8% | desaturation area (AUCSaO2) ([1]; systemic (i.v.) application, 30 and 100 μg/kg): dose dependent increase in desaturation area | inhibition at 0.1 mg/kg ([2]; read-out: inhibition of the airway hyperresponsiveness (ED100)): 38% | inhibition at 0.1 mg/kg ([2]; read-out: inhibition of the airway hyperresponsiveness (ED150)): 32% | inhibition of the eosinophilic influx ([2]; high dose group (100 μg)): 31% | effect on airway hyperresponsiveness ([2]; low dose (10 μg)): no or only marginal effects | inhibition of the eosinophilic influx ([2]; low dose group (10 μg)): 19% | efflux ratio [3]: does not show an efflux ratio

O=C(O)c1ccc(CCN(CCc2ccccc2OCc2ccc(-c3ccc(C(F)(F)F)cc3)cc2Cl)[C@H]2CCCc3nc(C(=O)O)ccc32)cc1 [example 2, (5S)-{[2-(4-Carboxyphenyl)ethyl][2-(2-{[3-chloro-4′-(trifluoromethyl)biphenyl-4-yl]methoxy}phenyl)-ethyl]amino}-5,6,7,8-tetrahydroquinoline-2-carboxylic acid]
total specific airway resistance, mean ± SD ([4]; 480 μg, 0 D 00 H 00 M): 1.078 ± 0.375 kPa/sec | total specific airway resistance, mean ± SD ([4]; 480 μg, 0 D 02 H 00 M): 0.839 ± 0.182 kPa/sec | total specific airway resistance, mean ± SD ([4]; 480 μg, 0 D 06 H 00 M): 0.800 ± 0.187 kPa/sec | total specific airway resistance, mean ± SD ([4]; 480 μg, 2 D 02 H 00 M): 0.883 ± 0.310 kPa/sec | total specific airway resistance, mean ± SD ([4]; 480 μg, 4 D 02 H 00 M): 0.807 ± 0.200 kPa/sec | total specific airway resistance, mean ± SD ([4]; 480 μg, 6 D 04 H 00 M): 0.798 ± 0.193 kPa/sec | total specific airway resistance, mean ± SD ([4]; 480 μg, 7 D 00 H 00 M): 0.823 ± 0.274 kPa/sec | total specific airway resistance, mean ± SD ([4]; 480 μg, 7 D 02 H 00 M): 0.777 ± 0.282 kPa/sec | total specific airway resistance, mean ± SD ([4]; 480 μg, 7 D 06 H 00 M): 0.803 ± 0.280 kPa/sec | total specific airway resistance, mean ± SD ([4]; 480 μg, SCREENING): 0.844 ± 0.327 kPa/sec | total specific airway resistance, mean ± SD ([4]; 480 μg, SCREENING 2): 0.832 ± 0.280 kPa/sec | total specific airway resistance, mean ± SD ([4]; 480 μg, −0 D 18 H 00 M (pretreatment day)): 0.921 ± 0.305 kPa/sec | total specific airway resistance, mean ± SD ([4]; 480 μg, −0 D 22 H 00 M (pretreatment day)): 0.928 ± 0.392 kPa/sec | total specific airway resistance, mean ± SD ([4]; 480 μg, −1 D 00 H 00 M (pretreatment day)): 0.939 ± 0.344 kPa/sec | total specific airway resistance, mean ± SD ([4]; 1000 μg, 0 D 00 H 00 M): 0.967 ± 0.233 kPa/sec | total specific airway resistance, mean ± SD ([4]; 1000 μg, 0 D 02 H 00 M): 0.859 ± 0.143 kPa/sec | total specific airway resistance, mean ± SD ([4]; 1000 μg, 0 D 06 H 00 M): 0.824 ± 0.180 kPa/sec | total specific airway resistance, mean ± SD ([4]; 1000 μg, 2 D 02 H 00 M): 0.797 ± 0.141 kPa/sec | total specific airway resistance, mean ± SD ([4]; 1000 μg, 4 D 02 H 00 M): 0.853 ± 0.172 kPa/sec | total specific airway resistance, mean ± SD ([4]; 1000 μg, 6 D 04 H 00 M): 0.787 ± 0.168 kPa/sec | total specific airway resistance, mean ± SD ([4]; 1000 μg, 7 D 00 H 00 M): 0.917 ± 0.227 kPa/sec | total specific airway resistance, mean ± SD ([4]; 1000 μg, 7 D 02 H 00 M): 0.764 ± 0.140 kPa/sec | total specific airway resistance, mean ± SD ([4]; 1000 μg, 7 D 06 H 00 M): 0.787 ± 0.188 kPa/sec | total specific airway resistance, mean ± SD ([4]; 1000 μg, SCREENING): 0.867 ± 0.376 kPa/sec | total specific airway resistance, mean ± SD ([4]; 1000 μg, SCREENING 2): 1.009 ± 0.340 kPa/sec | total specific airway resistance, mean ± SD ([4]; 1000 μg, −0 D 18 H 00 M (pretreatment day)): 0.901 ± 0.187 kPa/sec | total specific airway resistance, mean ± SD ([4]; 1000 μg, −0 D 22 H 00 M (pretreatment day)): 0.903 ± 0.255 kPa/sec | total specific airway resistance, mean ± SD ([4]; 1000 μg, −1 D 00 H 00 M (pretreatment day)): 0.996 ± 0.194 kPa/sec | total specific airway resistance, mean ± SD ([4]; 2000 μg, 0 D 00 H 00 M): 0.947 ± 0.143 kPa/sec | total specific airway resistance, mean ± SD ([4]; 2000 μg, 0 D 02 H 00 M): 0.677 ± 0.139 kPa/sec | total specific airway resistance, mean ± SD ([4]; 2000 μg, 0 D 06 H 00 M): 0.651 ± 0.149 kPa/sec | total specific airway resistance, mean ± SD ([4]; 2000 μg, 2 D 02 H 00 M): 0.748 ± 0.155 kPa/sec | total specific airway resistance, mean ± SD ([4]; 2000 μg, 4 D 02 H 00 M): 0.709 ± 0.178 kPa/sec | total specific airway resistance, mean ± SD ([4]; 2000 μg, 6 D 04 H 00 M): 0.722 ± 0.168 kPa/sec | total specific airway resistance, mean ± SD ([4]; 2000 μg, 7 D 00 H 00 M): 0.844 ± 0.097 kPa/sec | total specific airway resistance, mean ± SD ([4]; 2000 μg, 7 D 02 H 00 M): 0.716 ± 0.089 kPa/sec | total specific airway resistance, mean ± SD ([4]; 2000 μg, 7 D 06 H 00 M): 0.730 ± 0.151 kPa/sec | total specific airway resistance, mean ± SD ([4]; 2000 μg, SCREENING): 0.899 ± 0.150 kPa/sec | total specific airway resistance, mean ± SD ([4]; 2000 μg, SCREENING 2): 0.957 ± 0.140 kPa/sec | total specific airway resistance, mean ± SD ([4]; 2000 μg, −0 D 18 H 00 M (pretreatment day)): 0.943 ± 0.245 kPa/sec | total specific airway resistance, mean ± SD ([4]; 2000 μg, −0 D 22 H 00 M (pretreatment day)): 0.933 ± 0.165 kPa/sec | total specific airway resistance, mean ± SD ([4]; 2000 μg, −1 D 00 H 00 M (pretreatment day)): 0.962 ± 0.266 kPa/sec | decrease of total specific airway resistance sRaw compared to baseline ([4]; 6 h after first dosing, all dose groups): −0.142 to −0.296 kPa/sec

From patent US12138256B2, “Treatment of cardiopulmonary disorders” (Bayer Aktiengesellschaft, priority 2021, dated 2024)
